In PubChem BioAssay AID1963848 (Molecular Pharmacology Branch, DTP, NCI, 2024):

Test system: 379773-124-R-J2-PDC spheroid viability
Test: Anticancer human tumor 379773-124-R-J2-PDC patient-derived endometrial carcinoma cell line growth inhibition [POLQ]
Details: spheroids with HUVEC and MSC; for IC50: curve of first compound; for viability, T/C: stronger effect = lower value; active = viability on the fitted dose curve at most 10% of control; inactive = the rest
Procedure, shortened: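 Complex spheroid viability model combining PDC tumour cells with endothelial (HUVEC) and MSC stromal cells. Novobiocin, ART-558 or RP6685 were tested singly and in combination with standard and investigational anticancer drugs. Each was titrated in half-log steps from near clinical Cmax, or from 10 microM where Cmax was unknown.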

[1] = second compound 0.0316 µM, first compound 0.0316 µM
[2] = second compound 0.0316 µM, first compound 0.1 µM
[3] = second compound 0.0316 µM, first compound 0.316 µM
[4] = second compound 0.0316 µM, first compound 1 µM
[5] = second compound 0.0316 µM, first compound 3.16 µM
[6] = second compound 0.0316 µM, first compound 10 µM
[7] = second compound 0.1 µM, first compound 0.0316 µM
[8] = second compound 0.1 µM, first compound 0.1 µM
[9] = second compound 0.1 µM, first compound 0.316 µM
[10] = second compound 0.1 µM, first compound 1 µM
[11] = second compound 0.1 µM, first compound 3.16 µM
[12] = second compound 0.1 µM, first compound 10 µM
[13] = second compound 0.316 µM, first compound 0.0316 µM
[14] = second compound 0.316 µM, first compound 0.1 µM
[15] = second compound 0.316 µM, first compound 0.316 µM
[16] = second compound 0.316 µM, first compound 1 µM
[17] = second compound 0.316 µM, first compound 3.16 µM
[18] = second compound 0.316 µM, first compound 10 µM
[19] = second compound 1 µM, first compound 0.0316 µM
[20] = second compound 1 µM, first compound 0.1 µM
[21] = second compound 1 µM, first compound 0.316 µM
[22] = second compound 1 µM, first compound 1 µM
[23] = second compound 1 µM, first compound 3.16 µM
[24] = second compound 1 µM, first compound 10 µM
[25] = second compound 3.16 µM, first compound 0.0316 µM
[26] = second compound 3.16 µM, first compound 0.1 µM
[27] = second compound 3.16 µM, first compound 0.316 µM
[28] = second compound 3.16 µM, first compound 1 µM
[29] = second compound 3.16 µM, first compound 3.16 µM
[30] = second compound 3.16 µM, first compound 10 µM
[31] = second compound 10 µM, first compound 0.0316 µM
[32] = second compound 10 µM, first compound 0.1 µM
[33] = second compound 10 µM, first compound 0.316 µM
[34] = second compound 10 µM, first compound 1 µM
[35] = second compound 10 µM, first compound 3.16 µM
[36] = second compound 10 µM, first compound 10 µM
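Also: spheroids exposed to drugs for seven days before readout.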
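For viability, T/C in this document: percent viability relative to DMSO vehicle control taken as 100%.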

CC(C)n1c(=O)n(C)c2cnc3cc(F)c(-c4ccc(OCCCN5CCCCC5)nc4)cc3c21 + Nc1ccc(C#CCN(C(=O)Cc2ncc(C(F)(F)F)cc2C(F)(F)F)c2ccc(F)cc2)nn1
inactive: viability, T/C [1] 95.4% | viability, T/C [2] 96.4% | viability, T/C [3] 83.3% | viability, T/C [4] 94.3% | viability, T/C [5] 81.7% | viability, T/C [6] 72.6% | viability, T/C [7] 97.9% | viability, T/C [8] 92.6% | viability, T/C [9] 85.3% | viability, T/C [10] 87.6% | viability, T/C [11] 78.9% | viability, T/C [12] 73.6% | viability, T/C [13] 90.4% | viability, T/C [14] 96.7% | viability, T/C [15] 84.7% | viability, T/C [16] 88.8% | viability, T/C [17] 81.4% | viability, T/C [18] 74.9% | viability, T/C [19] 98.5% | viability, T/C [20] 98.2% | viability, T/C [21] 87% | viability, T/C [22] 94.5% | viability, T/C [23] 84.7% | viability, T/C [24] 77.8% | viability, T/C [25] 92.6% | viability, T/C [26] 87.5% | viability, T/C [27] 82.1% | viability, T/C [28] 80.7% | viability, T/C [29] 85.9% | viability, T/C [30] 85.3% | viability, T/C [31] 85.5% | viability, T/C [32] 89.7% | viability, T/C [33] 77% | viability, T/C [34] 77.8% | viability, T/C [35] 75.2% | viability, T/C [36] 73.8%
> 10 µM: IC50 (second compound 0.0316 µM) | IC50 (second compound 0.1 µM) | IC50 (second compound 0.316 µM) | IC50 (second compound 1 µM) | IC50 (second compound 3.16 µM) | IC50 (second compound 10 µM)

COc1cc(C2c3cc4c(cc3C(OC3OC5COC(C)OC5C(O)C3O)C3COC(=O)C23)OCO4)cc(OC)c1O (stereo not drawn) + Nc1ccc(C#CCN(C(=O)Cc2ncc(C(F)(F)F)cc2C(F)(F)F)c2ccc(F)cc2)nn1
1.57 µM: IC50 (second compound 0.1 µM)
1.5 µM: IC50 (second compound 0.0316 µM)
1.24 µM: IC50 (second compound 1 µM) | IC50 (second compound 10 µM)
inactive: viability, T/C [1] 95.4% | viability, T/C [2] 116% | viability, T/C [3] 81.9% | viability, T/C [4] 70.4% | viability, T/C [5] 17% | viability, T/C [6] 15.5% | viability, T/C [7] 98.8% | viability, T/C [8] 86% | viability, T/C [9] 90% | viability, T/C [10] 70.2% | viability, T/C [11] 18.6% | viability, T/C [12] 14.1% | viability, T/C [13] 92.5% | viability, T/C [14] 116% | viability, T/C [15] 97% | viability, T/C [16] 67.4% | viability, T/C [17] 15.9% | viability, T/C [18] 16.8% | viability, T/C [19] 99.1% | viability, T/C [20] 96.2% | viability, T/C [21] 78.4% | viability, T/C [22] 62.2% | viability, T/C [23] 17.3% | viability, T/C [24] 13.8% | viability, T/C [25] 94.1% | viability, T/C [26] 96.1% | viability, T/C [27] 81.7% | viability, T/C [28] 65.1% | viability, T/C [29] 18.2% | viability, T/C [30] 13.6% | viability, T/C [31] 98% | viability, T/C [32] 92.7% | viability, T/C [33] 98% | viability, T/C [34] 57.6% | viability, T/C [35] 16.9% | viability, T/C [36] 16.3%
1.41 µM: IC50 (second compound 3.16 µM)
1.49 µM: IC50 (second compound 0.316 µM)

O=C(c1cc(Cc2n[nH]c(=O)c3ccccc23)ccc1F)N1CCN(C(=O)C2CC2)CC1 + Nc1ccc(C#CCN(C(=O)Cc2ncc(C(F)(F)F)cc2C(F)(F)F)c2ccc(F)cc2)nn1
9.3 µM: IC50 (second compound 0.0316 µM)
inactive: viability, T/C [1] 87.2% | viability, T/C [2] 93.1% | viability, T/C [3] 82.5% | viability, T/C [4] 89.9% | viability, T/C [5] 87.8% | viability, T/C [6] 47.5% | viability, T/C [7] 85.1% | viability, T/C [8] 94.2% | viability, T/C [9] 94% | viability, T/C [10] 83% | viability, T/C [11] 91.1% | viability, T/C [12] 45.5% | viability, T/C [13] 89.8% | viability, T/C [14] 90% | viability, T/C [15] 92.7% | viability, T/C [16] 91.3% | viability, T/C [17] 82% | viability, T/C [18] 50.6% | viability, T/C [19] 95.1% | viability, T/C [20] 100% | viability, T/C [21] 94% | viability, T/C [22] 85.2% | viability, T/C [23] 83.1% | viability, T/C [24] 48.4% | viability, T/C [25] 88.1% | viability, T/C [26] 88.7% | viability, T/C [27] 84.7% | viability, T/C [28] 93.2% | viability, T/C [29] 89.8% | viability, T/C [30] 52.2% | viability, T/C [31] 87.8% | viability, T/C [32] 89.2% | viability, T/C [33] 89.3% | viability, T/C [34] 96.5% | viability, T/C [35] 84.5% | viability, T/C [36] 49.5%
8.88 µM: IC50 (second compound 0.1 µM)
9.76 µM: IC50 (second compound 1 µM)
> 10 µM: IC50 (second compound 0.316 µM) | IC50 (second compound 3.16 µM)
9.98 µM: IC50 (second compound 10 µM)

CCCS(=O)(=O)Nc1ccc(F)c(C(=O)c2c[nH]c3ncc(-c4ccc(Cl)cc4)cc23)c1F + Nc1ccc(C#CCN(C(=O)Cc2ncc(C(F)(F)F)cc2C(F)(F)F)c2ccc(F)cc2)nn1
inactive: viability, T/C [1] 85.6% | viability, T/C [2] 97.3% | viability, T/C [3] 83.9% | viability, T/C [4] 92% | viability, T/C [5] 80.9% | viability, T/C [6] 55.1% | viability, T/C [7] 95.3% | viability, T/C [8] 88.7% | viability, T/C [9] 87.2% | viability, T/C [10] 85.7% | viability, T/C [11] 81.4% | viability, T/C [12] 55% | viability, T/C [13] 94.6% | viability, T/C [14] 95.8% | viability, T/C [15] 81% | viability, T/C [16] 94.6% | viability, T/C [17] 93.6% | viability, T/C [18] 70.8% | viability, T/C [19] 90.6% | viability, T/C [20] 86.6% | viability, T/C [21] 95.1% | viability, T/C [22] 85.7% | viability, T/C [23] 77.9% | viability, T/C [24] 59.2% | viability, T/C [25] 96.5% | viability, T/C [26] 89.7% | viability, T/C [27] 92.1% | viability, T/C [28] 96.4% | viability, T/C [29] 75.1% | viability, T/C [30] 59.8% | viability, T/C [31] 100% | viability, T/C [32] 87.3% | viability, T/C [33] 79.8% | viability, T/C [34] 83.6% | viability, T/C [35] 81.5% | viability, T/C [36] 54.3%
> 10 µM: IC50 (second compound 0.0316 µM) | IC50 (second compound 0.1 µM) | IC50 (second compound 0.316 µM) | IC50 (second compound 1 µM) | IC50 (second compound 3.16 µM) | IC50 (second compound 10 µM)
